The target of the assay is T1, MAP3K2 (MEKK2) (Homo sapiens, UniProt Q9Y2U5).
T1 construct: purchased Thermo Fisher Scientific (Life Technologies) SelectScreen
The assay can be described thus: SelectScreen LanthaScreen. The following applies: read-out: % displacement. The assay is classed as binding. Summed up: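 NU5455 was profiled across the SelectScreen Broad panel of kinase activity and binding assays. Z'LYTE reactions such as CSF1R ran at apparent Km ATP, while the Adapta CAMK1 assay used ATP listed as 10. Values are given as percent.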
(In general: Time-resolved FRET reads energy transfer from a long-lived donor to a nearby acceptor.)

T1 sequence (Q9Y2U5 whole entry): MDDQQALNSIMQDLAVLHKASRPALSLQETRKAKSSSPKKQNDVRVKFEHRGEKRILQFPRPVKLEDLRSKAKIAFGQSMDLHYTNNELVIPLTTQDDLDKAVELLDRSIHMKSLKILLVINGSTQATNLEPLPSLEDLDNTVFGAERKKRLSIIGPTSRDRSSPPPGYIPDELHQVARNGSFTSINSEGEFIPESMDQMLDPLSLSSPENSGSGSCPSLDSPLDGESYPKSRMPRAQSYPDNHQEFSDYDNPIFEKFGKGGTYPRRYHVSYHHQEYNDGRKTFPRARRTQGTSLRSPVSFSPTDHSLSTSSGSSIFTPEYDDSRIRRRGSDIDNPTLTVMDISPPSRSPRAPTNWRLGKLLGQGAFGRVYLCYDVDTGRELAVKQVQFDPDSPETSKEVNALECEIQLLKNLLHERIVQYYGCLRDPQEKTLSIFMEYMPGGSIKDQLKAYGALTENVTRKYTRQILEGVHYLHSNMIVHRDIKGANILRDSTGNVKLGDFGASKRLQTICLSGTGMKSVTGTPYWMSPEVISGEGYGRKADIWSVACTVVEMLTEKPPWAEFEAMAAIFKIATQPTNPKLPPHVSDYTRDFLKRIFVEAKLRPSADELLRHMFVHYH

Take `CN(C(=O)CN1CCOCC1)c1ccc2sc3c(-c4cccc5c(=O)cc(N6CC7CCC(C6)O7)oc45)cccc3c2c1` [NU5455]: the inhibition at 1 µM came out at 0.1%.

The values above are taken from PMC6934184, “Selective DNA-PKcs inhibition extends the therapeutic index of localized radiotherapy and chemotherapy” (The Journal of Clinical Investigation, 2019).
